Reference: patent US20240293343A1, “Benzylideneaminoguanidine derivatives as NR2B-selective NMDA receptor antagonists and their therapeutic applications” (InFlectis BioScience, priority 2023, published 2024)
Like-named read-outs stand apart in the source and are kept apart here.

How the values were obtained:
NMDAR (NR1A/NR2B) = target: T1, NMDAR (NR1A/NR2B) (Homo sapiens, UniProt Q05586+Q13224); test: NMDAR (NR1A/NR2B) Human Glutamate Ion Channel Cell Based Antagonist Ca2+ Flux Assay; conditions: Hek293 cells expressing NMDAR subunit 1A/2B, FLIPR Tetra; read-out: IC50, antagonist activity on Ca^2+ flux
T1 construct: host or cells: HEK293
Procedure: Briefly, Hek293 cells stably transfected to express NMDAR subunit 1A/2B were seeded into 384-well microplates and incubated at 37° C. Cells were loaded with dye prior to testing. […] Cells were further incubated for 30-60 minutes at 37° C., and compound activity on calcium flux was measured on a FLIPR Tetra (MDS).

[1] = target: T2, glycine binding to the NMDAR NR1 subunit (Rattus norvegicus, UniProt P35439); test: NMDAR radiolabeled ligand displacement assay, MDL-105,519; conditions: glycine site
T2 construct: tissue Eurofins 232910/233010/234000/SafetyScreen44 Panel

ion channel of the NMDAR = test: NMDAR radiolabeled ligand displacement assay, MK-801; assay type: binding, rat; conditions: pore channel
[2] = system: glutamate binding to the NMDAR NR2 subunit; test: NMDAR radiolabeled ligand displacement assay, CGP-39653; set-up: species or system rat; conditions: glutamate site
[3] = target: T3, Ifenprodil binding site on the NR2B subunit (Rattus norvegicus, UniProt P35439+Q00960); test: NMDAR radiolabeled ligand displacement assay, Ifenprodil
T3 construct: tissue Eurofins 232910/233010/234000/SafetyScreen44 Panel; host or cells: rat cerebral cortex

sciatic nerve injury = test: Mouse model of sciatic nerve injury (toe spreading, electromyography, histology); assay type: in vivo, mice (Swiss CD-1); conditions: 1.5 mg/kg once daily per os
Procedure: 6-week-old Swiss (CD-1) male mice were provided by Janvier Labs and housed in an animal facility in a day/night inversed cycle. […] Mice were anesthetized with ketamine chlorohydrate (100 mg/kg) and xylazine (10 mg/kg) and placed on a heating pad. Skin was incised and the sciatic nerve exposed at mid-thigh level and lesioned with fine forceps to ensure peripheral injury. The nerve was crushed twice with a haemostatic forceps (width 1.5 mm; Koenig, Strasbourg, France) with a 90-degree rotation between each crush. The skin incision was sutured, and mice were allowed to recover isolated until the end of anesthesia. The hind limb, contralateral to the lesion, served as uninjured control. Analgesia was induced prior surgery and the following days with bunepronorphine (0.1 mg/kg). […] The loss of nerve function recovered progressively over a 4-5 weeks period after mechanical insult.
At day 0, on day 7, and on day 14 and day 21 post-surgery, the functionality of the nerve fibers was determined with an electromyography apparatus (Dantec, Natus, France), on the ipsilateral side and contralateral side. […] The compound muscle action potential (CMAP) was measured: more precisely the amplitude (mV) and the latency (ms) of the action potential were recorded in gastrocnemius muscle after stimulation of the sciatic nerve. […]

[4] = human, cited from earlier work
[5] = system: NMDA-induced currents / cytosolic Ca^2+ load; conditions: Ruiz et al. 2020; cited from earlier work
[6] = solid and solution states; cited from earlier work
[7] = in vivo

T1 sequence (Q13224 27-1484, other chains not shown): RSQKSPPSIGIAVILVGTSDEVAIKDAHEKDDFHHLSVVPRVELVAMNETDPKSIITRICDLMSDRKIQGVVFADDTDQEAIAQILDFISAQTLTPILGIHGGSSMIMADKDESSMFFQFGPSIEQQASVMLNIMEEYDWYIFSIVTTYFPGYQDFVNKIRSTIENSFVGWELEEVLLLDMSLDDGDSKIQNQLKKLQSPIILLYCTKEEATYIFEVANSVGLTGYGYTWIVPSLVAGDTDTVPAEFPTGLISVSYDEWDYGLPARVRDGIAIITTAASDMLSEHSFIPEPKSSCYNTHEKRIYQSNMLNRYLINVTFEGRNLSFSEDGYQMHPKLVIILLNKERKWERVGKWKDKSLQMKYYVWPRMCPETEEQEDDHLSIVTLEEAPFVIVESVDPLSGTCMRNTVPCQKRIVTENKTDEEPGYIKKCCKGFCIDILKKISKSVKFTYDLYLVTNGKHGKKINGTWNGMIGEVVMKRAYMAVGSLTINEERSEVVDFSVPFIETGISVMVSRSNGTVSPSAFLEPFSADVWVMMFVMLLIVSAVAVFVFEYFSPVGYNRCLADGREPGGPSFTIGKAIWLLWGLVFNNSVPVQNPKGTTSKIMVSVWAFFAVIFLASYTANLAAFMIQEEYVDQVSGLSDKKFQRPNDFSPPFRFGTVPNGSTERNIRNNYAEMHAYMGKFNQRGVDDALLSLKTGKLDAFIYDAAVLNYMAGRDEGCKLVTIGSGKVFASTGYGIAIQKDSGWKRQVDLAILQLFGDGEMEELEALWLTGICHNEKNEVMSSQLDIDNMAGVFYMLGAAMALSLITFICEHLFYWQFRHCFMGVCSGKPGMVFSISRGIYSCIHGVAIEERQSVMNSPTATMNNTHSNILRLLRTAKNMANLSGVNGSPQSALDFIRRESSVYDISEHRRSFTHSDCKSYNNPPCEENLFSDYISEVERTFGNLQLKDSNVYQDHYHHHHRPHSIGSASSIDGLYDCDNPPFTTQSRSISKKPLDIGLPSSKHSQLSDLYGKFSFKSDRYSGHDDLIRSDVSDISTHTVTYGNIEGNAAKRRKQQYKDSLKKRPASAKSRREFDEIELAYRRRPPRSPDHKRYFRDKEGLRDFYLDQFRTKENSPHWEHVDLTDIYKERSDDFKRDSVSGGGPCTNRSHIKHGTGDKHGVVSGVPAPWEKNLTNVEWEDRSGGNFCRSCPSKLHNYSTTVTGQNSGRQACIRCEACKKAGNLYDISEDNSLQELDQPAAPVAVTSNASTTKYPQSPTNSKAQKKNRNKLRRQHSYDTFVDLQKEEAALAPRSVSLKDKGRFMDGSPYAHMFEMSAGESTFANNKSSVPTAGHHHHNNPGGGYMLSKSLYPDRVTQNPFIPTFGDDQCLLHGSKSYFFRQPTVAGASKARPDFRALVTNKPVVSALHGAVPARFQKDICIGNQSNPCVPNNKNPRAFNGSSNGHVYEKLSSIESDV
T3 sequence (Q00960 27-1482, other chains not shown): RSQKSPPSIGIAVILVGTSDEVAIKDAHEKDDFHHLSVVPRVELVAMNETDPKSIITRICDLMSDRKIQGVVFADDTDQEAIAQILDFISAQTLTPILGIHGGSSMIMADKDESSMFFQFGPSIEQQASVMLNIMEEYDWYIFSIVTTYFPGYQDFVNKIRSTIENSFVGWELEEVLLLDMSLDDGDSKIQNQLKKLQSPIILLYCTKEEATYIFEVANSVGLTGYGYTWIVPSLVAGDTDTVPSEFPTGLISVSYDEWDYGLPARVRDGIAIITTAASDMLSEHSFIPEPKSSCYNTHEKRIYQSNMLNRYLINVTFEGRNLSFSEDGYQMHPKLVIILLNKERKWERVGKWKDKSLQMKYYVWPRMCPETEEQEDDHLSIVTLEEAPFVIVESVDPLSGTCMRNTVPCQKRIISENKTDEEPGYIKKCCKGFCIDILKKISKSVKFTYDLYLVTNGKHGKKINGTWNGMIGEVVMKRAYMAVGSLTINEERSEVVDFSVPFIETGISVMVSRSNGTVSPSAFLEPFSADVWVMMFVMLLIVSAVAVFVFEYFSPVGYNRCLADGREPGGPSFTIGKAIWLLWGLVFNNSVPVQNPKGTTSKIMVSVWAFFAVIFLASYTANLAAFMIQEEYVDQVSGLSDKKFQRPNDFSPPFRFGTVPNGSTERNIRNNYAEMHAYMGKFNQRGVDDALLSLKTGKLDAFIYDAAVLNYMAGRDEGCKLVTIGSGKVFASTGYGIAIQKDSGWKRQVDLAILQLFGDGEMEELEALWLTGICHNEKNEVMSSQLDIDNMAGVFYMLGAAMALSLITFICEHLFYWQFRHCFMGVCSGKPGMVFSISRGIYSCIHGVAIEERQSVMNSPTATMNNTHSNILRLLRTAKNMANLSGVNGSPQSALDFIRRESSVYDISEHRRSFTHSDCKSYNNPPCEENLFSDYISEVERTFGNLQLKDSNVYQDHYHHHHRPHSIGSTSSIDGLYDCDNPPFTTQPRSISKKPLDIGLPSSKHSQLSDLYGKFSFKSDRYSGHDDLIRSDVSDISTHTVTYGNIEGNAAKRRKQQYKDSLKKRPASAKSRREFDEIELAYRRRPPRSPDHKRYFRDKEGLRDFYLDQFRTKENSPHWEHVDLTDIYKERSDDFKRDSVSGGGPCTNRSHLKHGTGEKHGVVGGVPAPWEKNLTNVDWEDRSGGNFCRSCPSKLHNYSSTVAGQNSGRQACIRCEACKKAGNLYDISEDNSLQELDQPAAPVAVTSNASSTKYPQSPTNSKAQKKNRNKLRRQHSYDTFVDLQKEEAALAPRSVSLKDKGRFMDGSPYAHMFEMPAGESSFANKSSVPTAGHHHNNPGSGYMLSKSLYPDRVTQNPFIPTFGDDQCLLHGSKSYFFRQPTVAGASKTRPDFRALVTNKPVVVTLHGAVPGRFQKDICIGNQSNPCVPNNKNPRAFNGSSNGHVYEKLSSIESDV

Compound: N=C(N)N/N=C/c1ccc(F)cc1Cl [Compound 3, 2-(2-chloro-4-fluoro-benzylidene)hydrazine-carboximidamide]
- IC50 (NMDAR (NR1A/NR2B)): 702 nM
- displacement of radiolabeled ligand MDL-105,519 [1]: unable to displace
- displacement of radiolabeled ligand MK-801 (ion channel of the NMDAR): unable to displace
- displacement of radiolabeled ligand CGP-39653 [2]: unable to displace
- IC50 [3]: 250 nM
- recovery of toe spreading compared to control group (sciatic nerve injury): faster
- recovery of toe spreading, median time (printed median survival) (sciatic nerve injury; ipsilateral paw, vehicle usually after 10 days): 8 days

Compound: CC(=O)O.N=C(N)N/N=C/c1c(Cl)cccc1Cl [Compound 1, 2-(2,6-dichlorobenzylidene)hydrazine-carboximidamide acetate salt]
- IC50 (NMDAR (NR1A/NR2B)): 625 nM
- displacement of radiolabeled ligand MDL-105,519 [1]: unable to displace
- displacement of radiolabeled ligand MK-801 (ion channel of the NMDAR): unable to displace
- displacement of radiolabeled ligand CGP-39653 [2]: unable to displace
- IC50 [3]: 400 nM
- adverse events resembling those present in schizophrenia ([4]; controlled and open therapeutic trials): none of the adverse events seen with compound 1 (i.e. guanabenz) resembled those present in schizophrenia
- cardiovascular side effects [4]: rare, apart from a decrease in heart rate
- reported side effects [4]: drowsiness, dry mouth, dizziness and weakness
- NMDA-induced currents [5]: reducing
- NMDA-induced cytosolic Ca^2+ load [5]: reducing
- spontaneous isomerization (E/Z) [6]: practically insignificant

Compound: N=C(N)N/N=C/c1ccc(O)cc1Cl [Compound 19, 2-(2-chloro-4-hydroxybenzylidene)hydrazine-carboximidamide]
- adverse events resembling those present in schizophrenia ([7]; human): None of the adverse events seen with compound 2 and 19 resembled those present in schizophrenia
- compound-related hypotension and dizziness ([7]; human): No clinically significant compound 2 and 19-related hypotension, and dizziness
- metabolite status in human [7]: major human metabolite of compound 2

Compound: C[C@]12N[C@H](Cc3ccccc31)c1ccccc12 [MK-801]
- IC50 (NMDAR (NR1A/NR2B)): 69 nM
